Assay results as given in patent publication US7348330B2, “1-azabicyclo [2,2,2] octan-3-one derivatives” (Aprea AB, priority 2000, dated 2008).

Assays:
[1] = target: T1, GST-wild type p53 protein (Homo sapiens, UniProt P04637); test: ELISA with conformation-specific antibodies, recombinant protein; assay type: biochemical
T1 construct: made in house
Method: (§1) 20 ng of GST-wtp53, GST-mtp53-175 and GST-mtp53-248 were heated at 37° C. for 30 min or kept on ice. The procedure was performed with or without tested compounds. The ELISA analyses were done as described by (Foster et al., 1999). Briefly, after the treatment, samples were diluted with coating buffer (150 mM KCL, 25 mM HEPES) supplemented with 10 mM DTT. The whole mixture was apply to ELISA plates (MaxiSorp, Nunc) and incubated at +4° C. for 35 min. The wells were washed with coating buffer. The wells were blocked by 5% skim milk in PBS by incubating at +4° C. for 1 h. […] Samples were incubated at +4° C. for 30 min. Wells were rinsed twice with PBS. After that, a secondary antibody (anti-mouse, conjugated with horse radish peroxidase) was incubated with samples at +4° C. for 30 min. Then plates were washed 5 times with PBS and a peroxidase substrate was added. An absorbance at λ405 nm was monitored by ELISA reader.

[2] = test system: recombinant wild type and mutant p53 proteins; test: ELISA of p53 conformation upon heating 30 min at 37° C.; assay type: biochemical, human; details: for appearance of PAb240 epitope (unfolding) upon heating: 37° C.; for PAb1620 epitope after heating: 30 min at 37° C.; for DO-1 non-conformational epitope: incubation with compounds
Method: Absorbance of the control sample incubated on ice was taken as 100%.
as §1

p53-null Saos-2 cells = test: FACS analysis of apoptosis (sub-G1, propidium iodide); assay type: cell-based, human; parameters: dose or concentration left out as unconfirmed
Method: (§2) Induction of apoptosis was determined by FACS analysis of ethanol fixed cells stained with propidium iodide (PI) as percentage of a sub-G1 population. […] The percentage of dead cells in non-treated cultures and in controls treated with caspase inhibitors only was subtracted. […] Hoechst staining was used to stain cell nuclei. […] The percentage of apoptotic cells was measured by FACS analysis as it was described in Figure.
(§3) Cells were placed on 12-well plate at a density of 30000/cm^2 and treated with compounds. After 48 h incubation cells were harvested by trypsinization, fixed with 70% ethanol, treated with RNase A (0.25 mg/ml) and stained with propidium iodide (0.02 mg/ml). Samples were analyzed on a Becton Dickinson FACScan. Data were analyzed by the CellQuest software, version 3.2.1.

Saos-2-His-273 cells = test: as above; assay type: cell-based, human; details: for p53 dependence of apoptosis induction: cells grown in presence or absence of doxycyclin; for time after treatment at which apoptosis/cell death is evident: data not shown
Method: as §2, §3
Induction of cell death was determined by FACS analysis of ethanol-fixed cells stained with propidium iodide (PI) as percentage of sub-G1 population.

[3] = target: T1, GST-wild type p53 protein; test: Band shift assay, heat-inactivated protein; assay type: biochemical; details: protein inactivated at 37° C. for 30 min
Method: Lane 3, inactivation of DNA binding of wtp53 by heating.
(§4) The GST-p53 proteins were prepared as described (Selivanova et al., 1997). Band shift assays were performed in binding buffer containing 100 mM HEPES pH 7.5, 50 mM KCl , 1 mg/ml BSA, 0.1% Triton X-100, 2 mM MgCl2 and 1 mM DTT essentially as in (Selivanova et al., 1996).
Substitution of arginin at position 175 causes a gross unfolding of the DNA binding core domain of p53. Therefore, the restoration of the DNA binding of this mutant was regarded as an exceptionally difficult task.

14 mutant p53 proteins = test: Band shift assays, extracts of tumor cell lines; assay type: biochemical, human; details: of 14 mutants tested
Method: as §4
The compound MIRA-1 restored the DNA binding of 3 out of 14 mutant p53 proteins (Table III).

SKOV-His-175 cells = test: WST-1 proliferation assay; assay type: cell-based, human; details: for increase in cell survival by cycloheximide pretreatment: cycloheximide before addition of compound
Method: FIG. 13B, PRIMA-3 reactivated the hot spot p53 mutant Trp-248 in H1299 lung adenocarcinoma cells. FIG. 13C, MIRA-2 and MIRA-3 reactivated His-175 mutant of p53 in SKOV cells. […] FIG. 13G, PRIMA-2 reactivated mutant p53 His-273 in SKOV cells.
Saos-2-His-273 cell line stably transfected with construct allowing expression of mutant His-273 p53 in a tetracycline-dependent manner was used for screening (Selivanova et al., 1997). p53 expression was inhibited by incubation of cells with doxycycline (5 μg/ml). Cells were grown in 96-well plates at a density of 3000 cells per well with or without doxycycline and treated with 25 μM of the compounds from the NCI library of low molecular weight (LMW) compounds. After 48 hours of incubation the proliferative cell reagent WST-1 (Roche) was added to the cells. The degree of WST-1 reduction, which reflects cell viability, was measured by microplate reader at λ490 nm according to the manufacturer (Roche).
The cycloheximide treatment renders SKOV-His-175 resistant to MIRA-1 as well, resulting in about 4 fold increase in cell survival. […] In addition, SKOV-His-175 cells were at least 3 fold more sensitive to treatment with MIRA-1 in comparison with SKOV-His-175-22/23 cells.
Growth suppression by analogs in the presence or absence of p53 expression was measured as described in FIG. 1. […] Analogs of MIRA-1 induced mutant p53-dependent growth suppression in SKOV-His-175 cells (FIG. 13C).

[4] = test system: SW480 colon carcinoma cells carrying endogenous His-273 mutant p53; test: Western blot of p53 target genes p21 and MDM2; assay type: cell-based; details: Western blotting
From the text: In order to assess the effect of the analogs on the transcriptional transactivation function of mutant p53, we tested the expression of p53 target genes after treatment with analogs of colon carcinoma cells SW480 expressing endogenous His-273 mutant p53.

H1299-His-175 cells = test: Western blot of p53 target genes p21 and MDM2; assay type: cell-based, human
[5] = test system: p53-responsive PG-luciferase reporter in Saos-2-His-273 cells; test: PG-luciferase reporter assay; assay type: cell-based, human
Method: Transactivation assays using p53-responsive promoter constructs linked to the luciferase reporter gene (PG-luc) were performed by the Dual Luciferase Reporter Assay System (Promega) according to the manufacturer. […] A luciferase activity was assayed 1; 3.5 and 15 hours post-treatment.

[6] = absence of mutant p53 expression
[7] = cells expressing mutant p53, PRIMA-1 25 μM, MIRA-1 10 μM

T1 sequence (P04637 whole entry): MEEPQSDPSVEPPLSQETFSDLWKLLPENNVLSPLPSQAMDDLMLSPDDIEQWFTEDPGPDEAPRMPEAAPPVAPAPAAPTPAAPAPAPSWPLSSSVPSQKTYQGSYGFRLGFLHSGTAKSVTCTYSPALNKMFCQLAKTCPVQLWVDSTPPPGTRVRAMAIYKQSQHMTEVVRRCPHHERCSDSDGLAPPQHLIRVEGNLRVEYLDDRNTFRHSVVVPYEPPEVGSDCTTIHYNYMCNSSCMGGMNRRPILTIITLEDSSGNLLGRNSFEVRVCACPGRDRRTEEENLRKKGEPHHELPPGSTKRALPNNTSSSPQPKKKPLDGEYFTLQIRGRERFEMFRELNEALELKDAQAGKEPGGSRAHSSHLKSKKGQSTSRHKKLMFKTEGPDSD

Row | Compound | increase in the PAb1620+ fraction [1] | reduction in PAb240+ fraction [1] | appearance of PAb240 epitope (unfolding) upon heating [2] | PAb1620 epitope after heating [2] | DO-1 non-conformational epitope [2] | p53 dependence of apoptosis induction (Saos-2-His-273 cells) | time after treatment at which apoptosis/cell death is evident (Saos-2-His-273 cells) [h] | restoration of specific DNA binding [3] | mutant p53 proteins whose specific DNA binding was restored (14 mutant p53 proteins) | increase in cell survival by cycloheximide pretreatment (SKOV-His-175 cells) | induction of MDM2 and p21 [4] | induction of MDM2 and p21 (H1299-His-175 cells; [6]) | induction of MDM2 and p21 (H1299-His-175 cells; [7]) | other results
1 | CCC(=O)OCN1C(=O)C=CC1=O [MIRA-1] | About 40% | ~20% | able to prevent unfolding | preserve the conformation-dependent epitope | not affected | occurred only in the presence of p53 expression | 6 to 12 | able to restore | 3 out of 14 | about 4 fold | induced MDM2 and p21 | did not cause any induction | solid induction of both MDM2 and p21 | induction of apoptosis (p53-null Saos-2 cells; 48 hours): not in p53-null Saos-2 cells; induction of apoptosis (Saos-2-His-273 cells; 48 hours, no doxycycline): apoptosis was induced; sensitivity of SKOV-His-175 cells in comparison with SKOV-His-175-22/23 cells (SKOV-His-175 cells): at least 3 fold; stimulation of luciferase expression ([5]; after 3.5 hours, 10 μM): 2 fold
2 | O=C1C2CCN(CC2)C1(CO)CO [PRIMA-1, 2,2-bis(hydroxymethyl)-1-azabicyclo[2,2,2]octan-3-one] | 40% | corresponding decrease | able to prevent unfolding | preserve the conformation-dependent epitope | not affected | occurred only in the presence of p53 expression | 48 | able to restore | 13 out of 14 | 4 fold | induced MDM2 and p21 | did not cause any induction | solid induction of both MDM2 and p21 | DO-1+ fraction [1]: remained unchanged; induction of apoptosis (p53-null Saos-2 cells; 50, 75 and […], no p53 expression): much less efficient; induction of apoptosis (Saos-2-His-273 cells; 50, 75 and 125 µM, mutant p53 expressed): apoptosis was induced; induction of luciferase expression ([5]; after 15 hours, 50 μM): 2 fold
